Consider 18 molecules from patent US10202368B2, “CXCR7 receptor modulators” (IDORSIA PHARMACEUTICALS LTD, priority 2014, dated 2019).

Each structure is given as a SMILES string. pEC50: −log10 of the molar value.

For this test, the target named is CXCR7 (Homo sapiens (Human), UniProt P25106). Nature of the test: PathHunter CHO-K1 CXCR7 β-arrestin assay (agonistic activity). The following applies: β-arrestin recruitment in PathHunter CHO-K1 CXCR7 β-arrestin cells, 90 minutes at 37° C., geometric mean values. Format: cell-based. The method in brief:
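The enzyme-fragment complementation format pairs ProLink-tagged CXCR7 with EA–β-arrestin 2 in CHO-K1 cells, seeded at 5000/well for 24 h and serum-starved in OPTIMEM 3–4 h. Compounds were added in HBSS/20 mM HEPES/0.2% BSA for 90 min at 37 °C, followed by 1 h detection at room temperature and chemiluminescence read-out. EC50 is the geometric mean of several measurements.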
Background: Arrestin recruitment assays detect the binding of arrestin to an activated receptor.

Sequence of CXCR7 (P25106 whole entry, the tested form may be a part): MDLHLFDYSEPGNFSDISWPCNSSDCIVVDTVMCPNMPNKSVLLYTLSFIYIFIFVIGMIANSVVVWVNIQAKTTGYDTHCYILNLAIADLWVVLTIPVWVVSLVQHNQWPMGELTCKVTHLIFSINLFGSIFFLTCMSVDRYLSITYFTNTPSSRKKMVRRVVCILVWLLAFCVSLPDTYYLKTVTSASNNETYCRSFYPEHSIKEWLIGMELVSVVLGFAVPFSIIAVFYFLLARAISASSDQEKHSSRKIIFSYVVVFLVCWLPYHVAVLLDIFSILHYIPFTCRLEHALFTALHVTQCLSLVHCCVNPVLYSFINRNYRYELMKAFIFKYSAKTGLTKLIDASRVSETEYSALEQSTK
Sequence of CXCR7 (P32121 whole entry partner, the tested form may be a part): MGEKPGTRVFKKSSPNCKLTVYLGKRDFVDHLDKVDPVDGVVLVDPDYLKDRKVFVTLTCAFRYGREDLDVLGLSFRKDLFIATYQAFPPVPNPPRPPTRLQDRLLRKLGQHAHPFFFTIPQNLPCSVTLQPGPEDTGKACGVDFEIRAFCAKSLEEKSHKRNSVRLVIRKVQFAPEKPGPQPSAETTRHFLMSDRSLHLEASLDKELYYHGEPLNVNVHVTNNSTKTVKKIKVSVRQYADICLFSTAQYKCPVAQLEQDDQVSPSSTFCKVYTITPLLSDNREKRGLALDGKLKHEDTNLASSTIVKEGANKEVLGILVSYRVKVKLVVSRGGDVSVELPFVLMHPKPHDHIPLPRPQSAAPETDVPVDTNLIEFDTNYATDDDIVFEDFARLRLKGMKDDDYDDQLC

One may read the pEC50 as −log10 of the EC50, conventionally taken in molar units. A lower pEC50 goes with a high EC50. In turn, `CCN1CCOc2c(cccc2NCC(=O)N(CCN2CCCC2)Cc2ncccc2C(F)(F)F)C1` [Example 74, 2-(4-Ethyl-2,3,4,5-tetrahydro-benzo[f][1,4]oxazepin-9-ylamino)-N-(2-pyrrolidin-1-yl-ethyl)-N-(3-trifluoromethyl-pyridin-2-ylmethyl)-acetamide] showed a pEC50 of 8.30.

`CCN1CCOc2c(cccc2NCC(=O)N(CCN2CCCC2)Cc2ncccc2Cl)C1` [Example 75, N-(3-Chloro-pyridin-2-ylmethyl)-2-(4-ethyl-2,3,4,5-tetrahydro-benzo[f][1,4]oxazepin-9-ylamino)-N-(2-pyrrolidin-1-yl-ethyl)-acetamide] showed a pEC50 of 7.72.

For the molecule `CCN1CCOc2c(cccc2NCC(=O)N(CCN(C)C)Cc2cnc(C(F)(F)F)s2)C1` [Example 76, N-(2-Dimethylamino-ethyl)-2-(4-ethyl-2,3,4,5-tetrahydro-benzo[f][1,4]oxazepin-9-ylamino)-N-(2-trifluoromethyl-thiazol-5-ylmethyl)-acetamide], the pEC50 was 6.37.

As for `CCN1CCOc2c(cccc2NCC(=O)N(CCN(C)C)Cc2c(C(F)(F)F)nn(C)c2Cl)C1` [Example 77, N-(5-Chloro-1-methyl-3-trifluoromethyl-1H-pyrazol-4-ylmethyl)-N-(2-dimethylamino-ethyl)-2-(4-ethyl-2,3,4,5-tetrahydro-benzo[f][1,4]oxazepin-9-ylamino)-acetamide], the pEC50 is 6.55.

On to `CCN1CCOc2c(cccc2NCC(=O)N(CCN(C)C(=O)OC(C)(C)C)Cc2ncccc2Cl)C1` [Example 78, (2-{(3-Chloro-pyridin-2-ylmethyl)-[2-(4-ethyl-2,3,4,5-tetrahydro-benzo[f][1,4]oxazepin-9-ylamino)-acetyl]-amino}-ethyl)-methyl-carbamic acid tert-butyl ester], for which the pEC50 was 6.62.

`O=C(CNc1cccc2c1OCCN(CC1CC1)C2)N(CCN1CCCC1)Cc1ncccc1C(F)(F)F` [Example 82, 2-(4-Cyclopropylmethyl-2,3,4,5-tetrahydro-benzo[f][1,4]oxazepin-9-ylamino)-N-(2-pyrrolidin-1-yl-ethyl)-N-(3-trifluoromethyl-pyridin-2-ylmethyl)-acetamide] showed a pEC50 of 8.70.

Consider `CC(C)(C)NCCN(Cc1ccccc1C(F)(F)F)C(=O)CNc1cccc2c1OCCN(CC1CC1)C2` [Example 83, N-(2-tert-Butylamino-ethyl)-2-(4-cyclopropylmethyl-2,3,4,5-tetrahydro-benzo[f][1,4]oxazepin-9-ylamino)-N-(2-trifluoromethyl-benzyl)-acetamide], for which the pEC50 is 8.52.

Regarding `CN(C)CCN(Cc1ccccc1C(F)(F)F)C(=O)CNc1cccc2c1OCCN(CC1CC1)C2` [Example 84, 2-(4-Cyclopropylmethyl-2,3,4,5-tetrahydro-benzo[f][1,4]oxazepin-9-ylamino)-N-(2-dimethylamino-ethyl)-N-(2-trifluoromethyl-benzyl)-acetamide], the pEC50 was 8.40. The pEC50 values of the last two molecules are within 0.2 log units of each other.

For the molecule `CC(C)NCCN(Cc1ccccc1C(F)(F)F)C(=O)CNc1cccc2c1OCCN(CC1CC1)C2` [Example 85, 2-(4-Cyclopropylmethyl-2,3,4,5-tetrahydro-benzo[f][1,4]oxazepin-9-ylamino)-N-(2-isopropylamino-ethyl)-N-(2-trifluoromethyl-benzyl)-acetamide], the pEC50 is 8.52.

In the case of `CN(C)CCN(Cc1ccccc1Cl)C(=O)CNc1cccc2c1CN(CC1CC1)CCO2` [Example 86, N-(2-Chloro-benzyl)-2-(4-cyclopropylmethyl-2,3,4,5-tetrahydro-benzo[f][1,4]oxazepin-6-ylamino)-N-(2-dimethylamino-ethyl)-acetamide], the pEC50 was 7.85.

`Cc1cccnc1CN(CCN(C)C)C(=O)CNc1cccc2c1CN(CC1CC1)CCO2` [Example 87, 2-(4-Cyclopropylmethyl-2,3,4,5-tetrahydro-benzo[f][1,4]oxazepin-6-ylamino)-N-(2-dimethylamino-ethyl)-N-(3-methyl-pyridin-2-ylmethyl)-acetamide] gave a pEC50 of 7.64.

`CN(C)CCN(Cc1cccc(Cl)c1Cl)C(=O)CNc1cccc2c1CN(CC1CC1)CCO2` [Example 88, 2-(4-Cyclopropylmethyl-2,3,4,5-tetrahydro-benzo[f][1,4]oxazepin-6-ylamino)-N-(2,3-dichloro-benzyl)-N-(2-dimethylamino-ethyl)-acetamide]: the pEC50 was 7.82.

Consider `CC(C)NCCN(Cc1ccccc1C(F)(F)F)C(=O)CNc1cccc2c1CN(CC1CC1)CCO2` [Example 89, 2-(4-Cyclopropylmethyl-2,3,4,5-tetrahydro-benzo[f][1,4]oxazepin-6-ylamino)-N-(2-isopropylamino-ethyl)-N-(2-trifluoromethyl-benzyl)-acetamide], for which the pEC50 is 8.30.

The molecule `CC(C)NCCN(Cc1ncccc1C(F)(F)F)C(=O)CNc1cccc2c1CN(CC1CC1)CCO2` [Example 90, 2-(4-Cyclopropylmethyl-2,3,4,5-tetrahydro-benzo[f][1,4]oxazepin-6-ylamino)-N-(2-isopropylamino-ethyl)-N-(3-trifluoromethyl-pyridin-2-ylmethyl)-acetamide] gave a pEC50 of 8.15.

Regarding `CC(C)(C)NCCN(Cc1ccccc1Cl)C(=O)CNc1cccc2c1CN(CC1CC1)CCO2` [Example 91, N-(2-tert-Butylamino-ethyl)-N-(2-chloro-benzyl)-2-(4-cyclopropylmethyl-2,3,4,5-tetrahydro-benzo[f][1,4]oxazepin-6-ylamino)-acetamide], the pEC50 is 8.10.

The molecule `CC(C)(C)NCCN(Cc1ncccc1Cl)C(=O)CNc1cccc2c1CN(CC1CC1)CCO2` [Example 92, N-(2-tert-Butylamino-ethyl)-N-(3-chloro-pyridin-2-ylmethyl)-2-(4-cyclopropylmethyl-2,3,4,5-tetrahydro-benzo[f][1,4]oxazepin-6-ylamino)-acetamide] gave a pEC50 of 8.00. This pEC50 and that of the molecule before are within 0.2 log units of each other.

In turn, `CC(C)(C)NCCN(Cc1ccccc1C(F)(F)F)C(=O)CNc1cccc2c1CN(CC1CC1)CCO2` [Example 93, N-(2-tert-Butylamino-ethyl)-2-(4-cyclopropylmethyl-2,3,4,5-tetrahydro-benzo[f][1,4]oxazepin-6-ylamino)-N-(2-trifluoromethyl-benzyl)-acetamide] gave a pEC50 of 8.52. This pEC50 lies 0.52 log units higher than the previous one.

In turn, `CC(C)(C)NCCN(Cc1ncccc1C(F)(F)F)C(=O)CNc1cccc2c1CN(CC1CC1)CCO2` [Example 94, N-(2-tert-Butylamino-ethyl)-2-(4-cyclopropylmethyl-2,3,4,5-tetrahydro-benzo[f][1,4]oxazepin-6-ylamino)-N-(3-trifluoromethyl-pyridin-2-ylmethyl)-acetamide] showed a pEC50 of 8.40. The pEC50 values of the last two molecules are within 0.2 log units of each other.
